# Entries after “also recorded” stand apart in the source; their conditions may differ.
# Test system: pigs (fattening animals of the Piétrain×Danbred breed)
# Assay: Tail biting (caudophagia) injury scoring in fattening pigs fed guanidinoacetic acid in the feed
# Assay type: in vivo, pig (Sus scrofa domesticus)
# Conditions: for Number of animals score 3 or 4: regardless of available space; for Number of animals with score 1 (without abnormalities) / Number of animals with score 2 (dry bite marks, not bleeding) / Number of animals with score 3 (bloody bite marks, moderate inflammation) / Number of animals with score 4 ((partial) loss, high-grade inflammation, large bleeding wounds) / Number of animals, total score 3 + 4: 96 animals
# Text: A total of 1440 pigs (fattening animals of the Piétrain×Danbred breed) were used.
# From the 91st day of life, the experiment started with different dosage of different amounts of guanidinoacetic acid in the feed.
# After 60 days of life, 1152 animals were selected for the continuation of the experiment: Here, conspicuously weak animals and animals with easily recognizable injuries to the tail or other body parts were not used.
# In the subsequent fattening period, the pigs were kept in 72 pens of 16 animals each on concrete slats without bedding. A drawing of the experimental setup is shown with FIGS. 1 to 3. The slat width was 18 mm with a tread width of 80 mm. Feed was provided ad libitum by means of type RM 05 mash feeders from IBO Stalltechnik GmbH. The feed was supplied via floury feed.
# For each experimental parameter, 6 pens of mixed-sex were housed. For an even distribution, the animals were first divided into 4 main groups 1, 2, 3 and 4 of 288 animals each. Then, from each main group, animals were divided into 3 subgroups A, B and C (SG A, SG B, SG C) of 96 animals each, and from each subgroup, animals were separated into 6 pens. Thus, there were 12 experimental parameters with 6 replications each and 16 animals per replication, corresponding to 1152 animals.
# The 72 pens were divided into 6 sections in a stable. All 4 main groups were represented in each section, with a pen size assigned to each main group (see Table 1). The pen sizes of main groups 3 and 4 were realized by removing railings from the standard pen of 12 m^2. To realize the pen size of main group 2, a part of a 24 m^2 pen was reduced by a railing.
# Feeding from 91 days of life was performed in 2 phases, which were identical across all 4 main groups.
# For subgroups B and C, guanidinoacetic acid was added to the feed in amounts of 0.04 wt. % and 0.12 wt. %, respectively, relative to the solid feed.
# A maximum of 2 failures occurred per experimental regime during the fattening phase. Here, the score was evaluated at the time of the failure.
# Essential for an evaluation of the stand is the ratio of uninjured or only slightly injured animals to moderately and severely injured animals. Since dry, non-bloody bite marks result from a playful non-aggressive act, animals with score 2 were added to the non-injured animals. Harmful to animal welfare is considered to occur at score 3 and above, i.e., bloody bite marks, resulting from aggressive acts that are no longer playful. Therefore, for an evaluation, the numbers for scores 3 and 4 were added and the percentage of these animals relative to the total number of the respective experimental group was evaluated.
# [1] = experiment B1: 0.04 wt. % GAA in feed, 0.75 m^2/animal
# [2] = experiment B2: 0.04 wt. % GAA in feed, 0.9 m^2/animal
# [3] = experiment B3: 0.04 wt. % GAA in feed, 1.5 m^2/animal
# [4] = experiment B4: 0.04 wt. % GAA in feed, 2.25 m^2/animal
# [5] = experiment C1: 0.12 wt. % GAA in feed, 0.75 m^2/animal
# [6] = experiment C2: 0.12 wt. % GAA in feed, 0.9 m^2/animal
# [7] = experiment C3: 0.12 wt. % GAA in feed, 1.5 m^2/animal
# [8] = experiment C4: 0.12 wt. % GAA in feed, 2.25 m^2/animal
# [9] = guanidinoacetic acid given orally to pigs
compound,measurement,setting,value
"N=C(N)NCC(=O)O [guanidinoacetic acid, Guanidinoacetic acid]",Number of animals score 3 or 4,"0.04 wt. % GAA in feed, experiments B1 + B2 + B3 + B4 pooled, 384 animals",36
same,Injured animals (score 3 or 4),"0.04 wt. % GAA in feed, experiments B1 + B2 + B3 + B4 pooled, 384 animals, without supplementation 12.2%",9.4%
same,Reduction of injured animals versus no supplementation,"0.12 wt. % GAA in feed, 0.9 m^2/animal",almost halved the number of injured animals; also recorded: reduction of injured animals to almost half
same,Reduction of injured animals versus no supplementation,"0.12 wt. % GAA in feed, 1.5 m^2/animal",more than halved; also recorded: reduction of injured animals to more than half
same,Number of animals score 3 or 4,"0.12 wt. % GAA in feed, experiments C1 + C2 + C3 + C4 pooled, 384 animals",32
same,Injured animals (score 3 or 4),"0.12 wt. % GAA in feed, experiments C1 + C2 + C3 + C4 pooled, 384 animals, without supplementation 12.2%",8.3%
same,Number of animals with score 1 (without abnormalities),[1],41
same,"Number of animals with score 2 (dry bite marks, not bleeding)",[1],41
same,"Number of animals with score 3 (bloody bite marks, moderate inflammation)",[1],10
same,"Number of animals with score 4 ((partial) loss, high-grade inflammation, large bleeding wounds)",[1],4
same,"Number of animals, total score 3 + 4",[1],14
same,Injured animals (score 3 or 4),"experiment B1: 0.04 wt. % GAA in feed, 0.75 m^2/animal, without supplementation 15.6%",14.6%
same,Number of animals with score 1 (without abnormalities),[2],50
same,"Number of animals with score 2 (dry bite marks, not bleeding)",[2],36
same,"Number of animals with score 3 (bloody bite marks, moderate inflammation)",[2],8
same,"Number of animals with score 4 ((partial) loss, high-grade inflammation, large bleeding wounds)",[2],2
same,"Number of animals, total score 3 + 4",[2],10
same,Injured animals (score 3 or 4),"experiment B2: 0.04 wt. % GAA in feed, 0.9 m^2/animal, without supplementation 14.6%",10.4%
same,Number of animals with score 1 (without abnormalities),[3],54
same,"Number of animals with score 2 (dry bite marks, not bleeding)",[3],36
same,"Number of animals with score 3 (bloody bite marks, moderate inflammation)",[3],5
same,"Number of animals with score 4 ((partial) loss, high-grade inflammation, large bleeding wounds)",[3],1
same,"Number of animals, total score 3 + 4",[3],6
same,Injured animals (score 3 or 4),"experiment B3: 0.04 wt. % GAA in feed, 1.5 m^2/animal, without supplementation 11.5%",6.3%
same,Number of animals with score 1 (without abnormalities),[4],55
same,"Number of animals with score 2 (dry bite marks, not bleeding)",[4],35
same,"Number of animals with score 3 (bloody bite marks, moderate inflammation)",[4],6
same,"Number of animals with score 4 ((partial) loss, high-grade inflammation, large bleeding wounds)",[4],0
same,"Number of animals, total score 3 + 4",[4],6
same,Injured animals (score 3 or 4),"experiment B4: 0.04 wt. % GAA in feed, 2.25 m^2/animal, without supplementation 7.3%",6.3%
same,Number of animals with score 1 (without abnormalities),[5],40
same,"Number of animals with score 2 (dry bite marks, not bleeding)",[5],43
same,"Number of animals with score 3 (bloody bite marks, moderate inflammation)",[5],10
same,"Number of animals with score 4 ((partial) loss, high-grade inflammation, large bleeding wounds)",[5],3
same,"Number of animals, total score 3 + 4",[5],13
same,Injured animals (score 3 or 4),"experiment C1: 0.12 wt. % GAA in feed, 0.75 m^2/animal, without supplementation 15.6%",13.5%
same,Number of animals with score 1 (without abnormalities),[6],52
same,"Number of animals with score 2 (dry bite marks, not bleeding)",[6],36
same,"Number of animals with score 3 (bloody bite marks, moderate inflammation)",[6],6
same,"Number of animals with score 4 ((partial) loss, high-grade inflammation, large bleeding wounds)",[6],2
same,"Number of animals, total score 3 + 4",[6],8
same,Injured animals (score 3 or 4),"experiment C2: 0.12 wt. % GAA in feed, 0.9 m^2/animal, without supplementation 14.6%",8.3%
same,Number of animals with score 1 (without abnormalities),[7],56
same,"Number of animals with score 2 (dry bite marks, not bleeding)",[7],35
same,"Number of animals with score 3 (bloody bite marks, moderate inflammation)",[7],4
same,"Number of animals with score 4 ((partial) loss, high-grade inflammation, large bleeding wounds)",[7],1
same,"Number of animals, total score 3 + 4",[7],5
same,Injured animals (score 3 or 4),"experiment C3: 0.12 wt. % GAA in feed, 1.5 m^2/animal, without supplementation 11.5%",5.2%
same,Number of animals with score 1 (without abnormalities),[8],55
same,"Number of animals with score 2 (dry bite marks, not bleeding)",[8],35
same,"Number of animals with score 3 (bloody bite marks, moderate inflammation)",[8],5
same,"Number of animals with score 4 ((partial) loss, high-grade inflammation, large bleeding wounds)",[8],1
same,"Number of animals, total score 3 + 4",[8],6
same,Injured animals (score 3 or 4),"experiment C4: 0.12 wt. % GAA in feed, 2.25 m^2/animal, without supplementation 7.3%",6.3%
same,Behavioral abnormalities in the form of tail biting (caudophagia) compared to the untreated control group,[9],less behavioral abnormalities in the form of tail biting
same,Biting attacks on conspecifics compared to an untreated control group,[9],fewer biting attacks on conspecifics

# Reference: US11633373B2, “Method for reduction of behavioral disorders in pigs” (Alzchem Trostberg GmbH, priority 2020, dated 2023)
